Numbered stars: 1 amine (or outer) side, 2 acyl side, 3 side chain; on linkers, the order of the positions; unused ones are H or OH. Bridge positions count the residues as written; N and C are the ends. Square brackets hold non-standard residues; d marks the D form. Triazole bridges read from a SMILES are 1,4-linked. Peptide text beside a SMILES is read from it. * marks the point of attachment. Gly(αS-SH) = O=C([C@@H](N[*:1])S[*:3])[*:2]; Tyr(3-I) = N[C@@H](Cc1ccc(O)c(I)c1)C(=O)O; Orn(N3) = [N-]=[N+]=NCCC[C@H](N)C(=O)O; X1 = O=C(O)C[C@@H](N*)c1ccc(O)cc1; Cit = NC(=O)NCCC[C@H](N)C(=O)O; Pra = C#CC[C@H](N)C(=O)O
Legend:
human α9α10 nAChR = human α9α10 nAChR (Homo sapiens, UniProt Q9GZZ6+Q9UGM1); assay: cell-based; type: cell-based
Chain of human α9α10 nAChR (Q9UGM1 26-479 limits assumed): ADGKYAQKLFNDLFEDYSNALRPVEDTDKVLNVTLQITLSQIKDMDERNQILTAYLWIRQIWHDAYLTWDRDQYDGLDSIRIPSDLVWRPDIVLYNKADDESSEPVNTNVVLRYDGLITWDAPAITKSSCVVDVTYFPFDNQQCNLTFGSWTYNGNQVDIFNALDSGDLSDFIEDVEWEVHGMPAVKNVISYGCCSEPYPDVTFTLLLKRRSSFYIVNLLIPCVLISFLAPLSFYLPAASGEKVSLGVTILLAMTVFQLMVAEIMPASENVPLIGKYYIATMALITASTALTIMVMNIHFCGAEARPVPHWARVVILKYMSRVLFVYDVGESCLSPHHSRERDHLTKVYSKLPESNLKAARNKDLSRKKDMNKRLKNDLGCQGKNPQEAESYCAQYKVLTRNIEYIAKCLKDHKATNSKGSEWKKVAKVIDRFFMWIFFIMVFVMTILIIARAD
Chain of human α9α10 nAChR (Q9GZZ6 25-450 limits assumed): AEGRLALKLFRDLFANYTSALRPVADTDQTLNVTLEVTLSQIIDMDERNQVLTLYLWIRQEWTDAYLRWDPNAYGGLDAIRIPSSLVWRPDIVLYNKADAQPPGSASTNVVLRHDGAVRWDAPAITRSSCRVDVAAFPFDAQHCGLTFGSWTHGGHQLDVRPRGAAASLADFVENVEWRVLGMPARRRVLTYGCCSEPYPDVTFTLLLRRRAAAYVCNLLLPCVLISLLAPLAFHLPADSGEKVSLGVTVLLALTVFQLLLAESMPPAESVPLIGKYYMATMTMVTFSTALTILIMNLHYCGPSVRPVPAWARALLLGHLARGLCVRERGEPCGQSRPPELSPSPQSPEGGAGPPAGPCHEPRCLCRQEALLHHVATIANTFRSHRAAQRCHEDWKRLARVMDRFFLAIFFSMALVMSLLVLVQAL

rat α9α10 nAChR = rat α9α10 nAChR (Rattus norvegicus, UniProt P43144+Q9JLB5); assay: cell-based; type: cell-based; settings: α9α10 nAChR IC50 (nM) Rat
Chain of rat α9α10 nAChR (P43144 26-479 limits assumed): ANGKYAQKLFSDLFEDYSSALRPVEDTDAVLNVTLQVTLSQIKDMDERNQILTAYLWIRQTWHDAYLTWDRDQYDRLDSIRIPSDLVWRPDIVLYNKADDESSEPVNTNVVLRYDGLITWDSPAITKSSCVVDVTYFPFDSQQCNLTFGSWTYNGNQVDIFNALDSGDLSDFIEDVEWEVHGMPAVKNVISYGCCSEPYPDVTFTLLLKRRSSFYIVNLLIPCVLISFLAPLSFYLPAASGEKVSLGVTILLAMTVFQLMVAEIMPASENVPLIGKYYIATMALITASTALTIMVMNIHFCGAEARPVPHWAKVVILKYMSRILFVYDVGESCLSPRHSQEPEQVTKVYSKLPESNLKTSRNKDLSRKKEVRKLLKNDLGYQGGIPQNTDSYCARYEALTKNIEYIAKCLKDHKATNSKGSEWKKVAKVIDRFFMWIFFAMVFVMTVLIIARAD
Chain of rat α9α10 nAChR (Q9JLB5 25-447 limits assumed): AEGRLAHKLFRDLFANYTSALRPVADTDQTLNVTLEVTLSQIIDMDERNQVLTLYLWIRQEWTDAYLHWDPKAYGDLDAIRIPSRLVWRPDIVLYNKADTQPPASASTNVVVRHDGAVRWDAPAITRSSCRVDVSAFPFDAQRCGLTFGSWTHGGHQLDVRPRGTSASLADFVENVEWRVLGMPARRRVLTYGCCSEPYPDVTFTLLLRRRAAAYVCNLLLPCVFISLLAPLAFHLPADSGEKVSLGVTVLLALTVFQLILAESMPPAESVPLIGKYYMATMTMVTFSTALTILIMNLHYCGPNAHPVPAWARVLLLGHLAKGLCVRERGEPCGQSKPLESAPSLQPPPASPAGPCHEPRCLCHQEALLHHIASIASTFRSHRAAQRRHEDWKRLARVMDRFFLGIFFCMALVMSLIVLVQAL

**Q.** How did the IC50 (human α9α10 nAChR) turn out when C[C@@H](O)[C@@H]1NC(=O)[C@@H]2Cc3cn(nn3)CCC[C@@H](C(=O)N[C@@H](Cc3ccc(O)cc3)C(=O)N[C@H](Cc3ccc(O)cc3)C(=O)O)NC(=O)[C@H](CCC(N)=O)NC(=O)[C@H](Cc3c[nH]c4ccccc34)NC(=O)[C@H](CCCNC(N)=O)NC(=O)[C@H](CSSC[C@H](NC(=O)CN)C(=O)N2)NC(=O)[C@H](CCCNC(=N)N)NC(=O)[C@@H]2CCCN2C(=O)[C@H](CC(=O)O)NC1=O [Io, D-tyrosine, glycyl-L-cysteinyl-L-alanyl-L-threonyl-L-α-aspartyl-L-prolyl-L-arginyl-L-cysteinyl-N5-(aminocarbonyl)-L-ornithyl-L-tryptophyl-L-glutaminyl-L-norvalyl-L-tyrosyl-cyclic (2→8)-disulfide-cyclic 3^3,12^5-(1H-1,2,3-triazole-4,1-diyl)] (H-GC[Pra]TDPRC[Cit]WQ[Orn(N3)]Y[dY]-OH; disulfide 2-8; triazole 3-12) was run?
**A.** 59 nM

**Q.** And the IC50 (rat α9α10 nAChR)?
**A.** ≤ 10 nM

**Q.** For C[C@@H](O)[C@@H]1NC(=O)[C@H]2NC(=O)[C@@H](NC(=O)CN)CCCn3cc(nn3)C[C@H](NC(=O)[C@H](CCCNC(=N)N)NC(=O)[C@@H]3CCCN3C(=O)[C@H](CC(=O)O)NC1=O)C(=O)N[C@@H](CCCNC(N)=O)C(=O)N[C@@H](Cc1ccc(O)c(I)c1)C(=O)N[C@@H](CCC(N)=O)C(=O)N[C@H](C(=O)N[C@@H](Cc1ccc(O)cc1)C(N)=O)CSS2 [Id, L-tyrosinamide, glycyl-L-norvalyl-L-cysteinyl-L-threonyl-L-α-aspartyl-L-prolyl-L-arginyl-L-alanyl-N5-(aminocarbonyl)-L-ornithyl-L-3-iodotyrosyl-L-glutaminyl-L-cysteinyl-cyclic 2^5,8^3-(1H-1,2,3-triazole-1,4-diyl)-cyclic-(3→12)-disulfide] (H-G[Orn(N3)][Gly(αS-SH)]TDPR[Pra][Cit][Tyr(3-I)]QCY-NH2; triazole 2-8; disulfide 3-12), which IC50 (human α9α10 nAChR) is on record?
**A.** ≥ 1000 nM

**Q.** And the IC50 (rat α9α10 nAChR)?
**A.** ≥ 1000 nM

**Q.** For C[C@@H](O)[C@@H]1NC(=O)[C@@H]2Cc3cn(nn3)CCC[C@@H](C(=O)N[C@H](CC(=O)O)c3ccc(O)cc3)NC(=O)[C@H](CCC(N)=O)NC(=O)[C@H](Cc3c[nH]c4ccccc34)NC(=O)[C@H](CCCNC(N)=O)NC(=O)[C@H](CSSC[C@H](NC(=O)CN)C(=O)N2)NC(=O)[C@H](CCCNC(=N)N)NC(=O)[C@@H]2CCCN2C(=O)[C@H](CC(=O)O)NC1=O [Iu, (R)-3-(amino)-3-(4-hydroxyphenyl)propionic acid, glycyl-L-cysteinyl-L-alanyl-L-threonyl-L-α-aspartyl-L-prolyl-L-arginyl-L-cysteinyl-N5-(aminocarbonyl)-L-ornithyl-L-tryptophyl-L-glutaminyl-L-norvalyl-cyclic (2→8)-disulfide-cyclic 3^3,12^5-(1H-1,2,3-triazole-4,1-diyl)] (H-GC[Pra]TDPRC[Cit]WQ[Orn(N3)]-X1; disulfide 2-8; triazole 3-12), which IC50 (human α9α10 nAChR) is on record?
**A.** ~100 nM

**Q.** What about the IC50 (rat α9α10 nAChR) of the same compound?
**A.** < 30 nM

**Q.** With C[C@@H](O)[C@@H]1NC(=O)[C@@H]2CCCCNC(=O)CC[C@@H](C(=O)N[C@@H](Cc3ccc(O)cc3)C(N)=O)NC(=O)[C@H](CCC(N)=O)NC(=O)[C@H](Cc3ccc(O)c(I)c3)NC(=O)[C@H](CCCNC(N)=O)NC(=O)[C@H](CSSC[C@H](NC(=O)CN)C(=O)N2)NC(=O)[C@H](CCCNC(=N)N)NC(=O)[C@@H]2CCCN2C(=O)[C@H](CC(=O)O)NC1=O [Ix] (H-GCKTDPRC[Cit][Tyr(3-I)]QEY-NH2; disulfide 2-8; lactam 3-12) as the compound, how does the IC50 (human α9α10 nAChR) read?
**A.** 123 ± 22 nM

**Q.** And the IC50 (rat α9α10 nAChR)?
**A.** 21 ± 1.4 nM

— patent US11612661B2 (priority 2019, dated 2023)
